From ChEMBL document CHEMBL4706610, “Hydroxypyridinone-Based Iron Chelators with Broad-Ranging Biological Activities” (J Med Chem, 2020)

Tests used:
[1] = AUC (0 to infinity) in Sprague-Dawley rat plasma at 5 mg/kg, ip measured after 10 to 180 mins by HPLC-MS analysis; assay type: ADME, organism-based; parameters: route intraperitoneal, time lower 10 min, dose 5 mg/kg, time upper 180 min
[2] = Half life in Sprague-Dawley rat plasma at 5 mg/kg, ip measured after 10 to 180 mins by HPLC-MS analysis; assay type: ADME, organism-based; details: time 10-180 min
[3] = Volume of distribution in Sprague-Dawley rat plasma at 5 mg/kg, ip measured after 10 to 180 mins by HPLC-MS analysis; assay type: ADME, organism-based; details: in vivo, time 10-180 min
[4] = Cmax in Sprague-Dawley rat brain at 5 mg/kg, ip measured up to 30 mins by HPLC-MS analysis; assay type: ADME, organism-based; parameters: route intraperitoneal, dose 5 mg/kg, time <=30
[5] = Ratio of drug level in Sprague-Dawley rat brain to plasma at 5 mg/kg, ip measured after 10 to 180 mins by HPLC-MS analysis; assay type: ADME, organism-based; details: brain and plasma, time 10-180 min, read-out: BPR
[6] = molecular target: Amyloid-beta precursor protein (Homo sapiens, UniProt P05067); test: Inhibition of self-induced amyloid beta (1 to 42) (unknown origin) aggregation incubated for 24 hrs by ThT fluorescence assay
Amyloid-beta precursor protein, sequence (P05067 whole entry): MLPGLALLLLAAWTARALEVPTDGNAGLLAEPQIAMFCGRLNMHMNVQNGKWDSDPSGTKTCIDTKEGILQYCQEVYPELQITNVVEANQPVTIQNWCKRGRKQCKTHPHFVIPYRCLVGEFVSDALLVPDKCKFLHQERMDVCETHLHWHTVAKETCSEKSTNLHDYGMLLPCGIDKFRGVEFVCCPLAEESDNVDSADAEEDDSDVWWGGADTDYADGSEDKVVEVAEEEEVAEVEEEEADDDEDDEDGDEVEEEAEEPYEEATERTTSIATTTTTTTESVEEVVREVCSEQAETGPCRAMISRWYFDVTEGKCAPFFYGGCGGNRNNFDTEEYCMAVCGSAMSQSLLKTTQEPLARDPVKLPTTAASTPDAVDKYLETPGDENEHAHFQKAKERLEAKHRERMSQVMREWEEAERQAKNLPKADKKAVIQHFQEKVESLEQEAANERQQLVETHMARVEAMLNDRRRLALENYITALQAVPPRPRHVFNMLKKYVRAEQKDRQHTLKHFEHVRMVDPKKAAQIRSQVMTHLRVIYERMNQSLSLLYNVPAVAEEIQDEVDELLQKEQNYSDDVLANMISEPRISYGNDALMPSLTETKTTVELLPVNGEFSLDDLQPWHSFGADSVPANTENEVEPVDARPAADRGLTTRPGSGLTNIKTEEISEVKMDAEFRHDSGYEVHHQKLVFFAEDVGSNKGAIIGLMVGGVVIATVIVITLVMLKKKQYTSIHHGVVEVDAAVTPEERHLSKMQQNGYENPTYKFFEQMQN

C#CCN(C)CCCn1ccc(=O)c(O)c1C
AUC(0-inf) [1]: 636 ng·h/mL
half-life [2]: 1.6 h
Vd [3]: 18.7 L/kg
Cmax [4]: 207 ng/mL
Kp [5]: 0.69
IC50 [6]: 2850 nM
